US7491849B2, “Oligoamine compounds and derivatives thereof for cancer therapy” (priority 2001, dated 2009)

Assays:
Calf-thymus DNA = Calf-thymus DNA aggregation (absorbance at 320 nm); type: biochemical; conditions: 50 mM NaCl, 1 mM Na-cacodylate pH 7.0
Protocol: Calf-thymus DNA aggregation by spermine and oligoamines.
Test for DNA Aggregation: DNA aggregation was studied using a Perkin-Elmer Lambda 25 UV/visible spectrophotometer connected to a PTP 6 heating unit using a previously published procedure (see Basu, H S and Marton, L J, “The interaction of spermine and pentamines with DNA,” Biochemical Journal 244:243-246 (1987)). Aggregation was determined in 50 mM NaCl, 1 mM Na-cacodylate pH 7.0 buffer by observing the increase in DNA absorbance (approximately 0.5 A260 units) at 320 nm.

DuPro = test: MTT assay, tumor cell growth, DuPro; type: cell-based; conditions: 6 days incubation, read-out: ID50 (μM) values for Human Tumor Cell Lines, DuPro
Protocol: (§1) Effect of Saturated Oligoamines on Human Prostate Tumor Cell Growth by the MTT assay. Saturated oligoamines inhibited prostate cancer cell growth in vitro. DU-145 cells were most sensitive and PC-3 cells were less sensitive to the effects of oligoamines. In general, ID50 values of less than 0.5 μM were obtained (Table 2). Even though the PC-3 cells were relatively more resistant to the oligoamines, at a 5 μM concentration the oligoamines reduced the cell number to less than 1% of the control on day 6 of incubation. Tissue cultures and the MTT assay were performed as follows.
(§2) Tissue Culture. Cells were seeded into 75 cm^2 culture flasks with 15 ml of Eagle's minimal essential medium supplemented with 10% fetal calf serum and nonessential amino acids. The flasks were incubated in a humidified 95% air/5% CO2 atmosphere. The cells were grown for at least 24 h to ensure that they are in the log phase of growth and then they were treated with the oligoamines. Cells were harvested by treatment for 5 min with STV (saline A, 0.05% trypsin, 0.02% EDTA) at 37° C. The flasks were rapped on the lab bench, pipetted several times and aliquots of cell suspension were withdrawn and counted using a Coulter particle counter that has been standardized for counting each cell line using a hemacytometer.
(§3) MTT Assay: Trypsinized cell suspensions were diluted to seed 80 μl suspensions containing 500 cells in each well of a 96 well Corning microtiter plate and incubated overnight at 37° C. in a humidified incubator in 5% CO2. 20 μl of appropriately diluted stock solution of each drug were added to the middle 8 columns of cell suspension in the microtiter plates. Each drug concentration was run in quadruplicate. Outer columns of the plates were used for buffer controls. Cells were incubated with the drug for 6 days at 37° C. in 5% CO2/H2O atmosphere. 25 μl of 5 mg/ml solution of 3-(4,5-dimethylthiazol-2-yl)-2,5-diphenyl tetrazolium bromide (MTT) were added to each well and incubated for 4 hours at 37° C. in 5% CO2/H2O incubator. Cells were lysed by incubating overnight with 100 μl lysis buffer (500 ml of the lysis buffer contains: 100 g lauryl sulfate (SDS), 250 ml of N,N-dimethylformamide, and 2 ml of glacial acetic acid, made up to volume with water; pH 4.8).
(§4) The color was monitored at room temperature at 570 nm in a E-max Precision Microplate Reader (Molecular Devices Corporation, Sunnyvale, Calif.) and data was analyzed using cell survival software supplied by Molecular Devices Corporation.

PC-3 Cells = test: Cellular polyamine and oligoamine levels, PC-3 cells (HPLC); type: cell-based
Protocol: Cellular Uptake of Oligoamines. There was considerable uptake of oligoamines by the cancer cell lines; see Table 3A (DuPro cells) and Table 3B (PC-3 cells). […] While not wishing to be limited by any particular theory of operation, the cytotoxicity is likely related to their strong aggregation effect on DNA.
Polyamine Analysis. An appropriate number of cells were taken from harvested samples and centrifuged at 1000 rpm at 4° C. for 5 min. The cells were washed twice with chilled Dulbecco's isotonic phosphate buffer (pH 7.4) by centrifugation at 1000 rpm at 4° C. and resuspended in the same buffer. After the final centrifugation, the supernatant was decanted, and […] of 8% sulfosalycilic acid was added to the cell pellet. The cells were sonicated, and the mixture was kept at 4° C. for at least 1 h. After centrifugation at 8000 g for 5 min, the supernatant was removed for analysis. An appropriate volume (50-100 μl) was fluorescence-labeled by derivatizing with dansyl chloride. Labeled polyamines were loaded onto a C-18 high-performance liquid chromatography column and separated by gradient elution with acetonitrile/water at 50° C. Peaks were detected and quantitated using Shimadzu HPLC fluorescence monitor coupled with a Spectra-Physics peak integrator. Because polyamine levels vary with environmental conditions, control cultures were sampled for each experiment.

DU145 = test: MTT assay, tumor cell growth, DU145; type: cell-based; conditions: 6 days incubation, read-out: ID50 (μM) values for Human Tumor Cell Lines, DU145
Protocol: as §1, §2, §3, §4

LnCap = test: MTT assay, tumor cell growth, LnCap; type: cell-based; conditions: 6 days incubation, read-out: ID50 (μM) values for Human Tumor Cell Lines, LnCap
Protocol: as §1, §2, §3, §4

PC-3 = test: MTT assay, tumor cell growth, PC-3; type: cell-based; conditions: 6 days incubation, read-out: ID50 (μM) values for Human Tumor Cell Lines, PC-3
Protocol: as §1, §2, §3, §4

[1] = Solubility in water for injection; type: physicochemical; conditions: dosing solution, 6.25 mg/kg in 0.1 mL/10 g body weight
Protocol: Response of implanted sc DU-145 prostate tumors to treatment with SL-11159 and SL-11226. This experiment evaluates the antitumor efficacy of SLIL Biomedical Corporation compounds (SL-11159, SL-11226) against subcutaneously-implanted DU-145 human prostate tumor xenografts in male NCr-nu (line 3A10F17T1) mice. All compounds were tested at a single dose level when administered intravenously (iv), at 6.25 mg/kg. Both SL-11159 and SL-11226 were prepared in water for injection (soluble); the injection volume was 0.1 mL/10 g body weight.

[2] = PC-3, Day 4 of Treatment, analog conc. 1 μM
[3] = PC-3, Day 4 of Treatment, analog conc. 5 μM
[4] = PC-3, Day 6 of Treatment, analog conc. 1 μM

Row | SMILES | Conc. (μM) at the start of DNA Aggregation (Calf-thymus DNA) | IC50 (DuPro) | Polyamine levels, Analog (cellular oligoamine level) (PC-3 Cells; [2]) | Polyamine levels, Put (PC-3 Cells; [2]) | Polyamine levels, Spd (PC-3 Cells; [2]) | Polyamine levels, Spm (PC-3 Cells; [2]) | Polyamine levels, Analog (cellular oligoamine level) (PC-3 Cells; [3]) | Polyamine levels, Put (PC-3 Cells; [3]) | Polyamine levels, Spm (PC-3 Cells; [3]) | Polyamine levels, Analog (cellular oligoamine level) (PC-3 Cells; [4]) | Polyamine levels, Put (PC-3 Cells; [4]) | IC50 (DU145) | IC50 (LnCap) | IC50 (PC-3) | solubility in water for injection [1] | Polyamine levels, Spd (PC-3 Cells; [3])
1 | CCNCCCCNCCCCNCCCCNCCCCNCCCCNCCCCNCCCCNCCCCNCCCCNCC.Cl.Cl.Cl.Cl.Cl.Cl.Cl.Cl.Cl.Cl [SL-11159] | 2.5 µM | 0.3 µM | 0.513 nmoles/10^6 cells | 0.525 nmoles/10^6 cells | 0.531 nmoles/10^6 cells | 0.300 nmoles/10^6 cells | 0.388 nmoles/10^6 cells | 0.670 nmoles/10^6 cells | 0.240 nmoles/10^6 cells | 1.026 nmoles/10^6 cells | 0.640 nmoles/10^6 cells | 0.15 µM | 0.25 µM | 0.6 µM | soluble | –
2 | CCNCCCCNCCCCNCCCCNCCCCNCCCCNCCCCNCCCCNCCCCNCCCCNCCCCNCCCCNCC.Cl.Cl.Cl.Cl.Cl.Cl.Cl.Cl.Cl.Cl.Cl.Cl [SL-11226] | 2.2 µM | 0.11 µM | 0.021 nmoles/10^6 cells | 0.573 nmoles/10^6 cells | – | – | 0.026 nmoles/10^6 cells | 0.985 nmoles/10^6 cells | – | – | – | 0.08 µM | 0.15 µM | 0.14 µM | soluble | 0.071 nmoles/10^6 cells
